Data set [1] has as its target T1, human carboxylesterase CES3 (Homo sapiens, UniProt Q6UWW8).
T1 construct: made in house; host or cells: baculovirus-insect cells
T1 sequence (Q6UWW8 27-571): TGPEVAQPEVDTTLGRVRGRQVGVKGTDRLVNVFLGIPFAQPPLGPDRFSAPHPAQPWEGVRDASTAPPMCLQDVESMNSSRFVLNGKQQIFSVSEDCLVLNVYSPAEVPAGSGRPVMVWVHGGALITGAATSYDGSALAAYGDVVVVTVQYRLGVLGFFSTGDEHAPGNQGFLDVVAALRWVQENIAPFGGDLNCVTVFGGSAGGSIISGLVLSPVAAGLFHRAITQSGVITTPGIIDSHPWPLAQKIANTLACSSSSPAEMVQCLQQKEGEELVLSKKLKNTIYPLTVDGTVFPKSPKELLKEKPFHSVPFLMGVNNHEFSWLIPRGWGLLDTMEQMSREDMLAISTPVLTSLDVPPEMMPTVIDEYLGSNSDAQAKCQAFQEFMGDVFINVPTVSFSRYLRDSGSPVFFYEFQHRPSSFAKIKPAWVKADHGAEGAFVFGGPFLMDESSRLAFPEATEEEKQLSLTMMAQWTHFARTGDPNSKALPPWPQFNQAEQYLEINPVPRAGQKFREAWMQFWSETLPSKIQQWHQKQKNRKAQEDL
The experiment in a line: human CES3 enzyme inhibition assay (CMNA substrate). The class given is biochemical. An excerpt:
(§1) Recombinant human soluble epoxide hydrolase (sEH) was produced in a baculovirus expression system ([Beetham et al. 1993]) and purified by affinity chromatography ([Wixtrom et al. 1988]). […] The CESs were partially purified as previously described ([Nishi et al. 2006]), whereas microsomal preparations were used for FAAH and PON2 ([Huang et al. 2007]). Human liver cytosol and microsome extracts were obtained from BD Biosciences (San Jose, CA). Protein concentration was quantified using the Pierce BCA (bicinchoninic acid) assay (Pierce, Rockford, IL) using bovine serum albumin (BSA) as the calibrating standard.
(§2) Although the conditions for each enzyme assay were different (for details, see Table 1), the enzymatic assays were all run in a similar format. Enzymes were used at a concentration that results in linear generation of product with increasing time and protein concentration, as well as yielding a signal that was 3–20 times greater than the background. […]
(§3) For counterscreening, fresh solutions of all positive compounds were prepared in DMSO. […] IC50 values were calculated by nonlinear regression of at least five data points using SigmaPlot, version 9.01 (Systat Software Inc., Chicago, IL). […] Similarly, half-maximal effective concentration (EC50) values for agonists of the AhR and ER bioassays were determined, and the results are presented as the mean of triplicate analysis. […]

Data set [2] addresses T2, human carboxylesterase CES1 (Homo sapiens, UniProt P23141).
T2 construct: made in house; host or cells: baculovirus-insect cells
T2 sequence (P23141 18-567): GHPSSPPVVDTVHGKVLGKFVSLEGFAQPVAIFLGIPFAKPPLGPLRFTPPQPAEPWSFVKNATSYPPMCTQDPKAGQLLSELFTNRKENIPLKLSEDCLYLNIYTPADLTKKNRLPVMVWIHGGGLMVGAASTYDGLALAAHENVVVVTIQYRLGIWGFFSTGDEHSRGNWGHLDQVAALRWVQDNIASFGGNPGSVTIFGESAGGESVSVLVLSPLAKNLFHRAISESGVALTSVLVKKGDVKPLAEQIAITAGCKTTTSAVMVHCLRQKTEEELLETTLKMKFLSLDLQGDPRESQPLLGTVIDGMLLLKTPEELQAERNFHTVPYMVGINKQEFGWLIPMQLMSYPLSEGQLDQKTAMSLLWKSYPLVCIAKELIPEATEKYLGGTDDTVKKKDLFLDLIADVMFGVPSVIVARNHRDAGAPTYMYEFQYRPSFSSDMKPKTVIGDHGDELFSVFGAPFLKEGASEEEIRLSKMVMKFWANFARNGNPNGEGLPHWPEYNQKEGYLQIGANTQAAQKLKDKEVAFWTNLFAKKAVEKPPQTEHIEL
The experiment in a line: biochemical.

Data set [3] deals with T3, CYP450 2C9 (Homo sapiens, UniProt P11712). The experiment in a line: biochemical.
Data set [4] concerns the target T3, CYP450 2C9.
In data set [5] the target is T4, aryl hydrocarbon receptor (AhR) (Mus musculus, UniProt P30561).
T4 sequence (P30561 10-848): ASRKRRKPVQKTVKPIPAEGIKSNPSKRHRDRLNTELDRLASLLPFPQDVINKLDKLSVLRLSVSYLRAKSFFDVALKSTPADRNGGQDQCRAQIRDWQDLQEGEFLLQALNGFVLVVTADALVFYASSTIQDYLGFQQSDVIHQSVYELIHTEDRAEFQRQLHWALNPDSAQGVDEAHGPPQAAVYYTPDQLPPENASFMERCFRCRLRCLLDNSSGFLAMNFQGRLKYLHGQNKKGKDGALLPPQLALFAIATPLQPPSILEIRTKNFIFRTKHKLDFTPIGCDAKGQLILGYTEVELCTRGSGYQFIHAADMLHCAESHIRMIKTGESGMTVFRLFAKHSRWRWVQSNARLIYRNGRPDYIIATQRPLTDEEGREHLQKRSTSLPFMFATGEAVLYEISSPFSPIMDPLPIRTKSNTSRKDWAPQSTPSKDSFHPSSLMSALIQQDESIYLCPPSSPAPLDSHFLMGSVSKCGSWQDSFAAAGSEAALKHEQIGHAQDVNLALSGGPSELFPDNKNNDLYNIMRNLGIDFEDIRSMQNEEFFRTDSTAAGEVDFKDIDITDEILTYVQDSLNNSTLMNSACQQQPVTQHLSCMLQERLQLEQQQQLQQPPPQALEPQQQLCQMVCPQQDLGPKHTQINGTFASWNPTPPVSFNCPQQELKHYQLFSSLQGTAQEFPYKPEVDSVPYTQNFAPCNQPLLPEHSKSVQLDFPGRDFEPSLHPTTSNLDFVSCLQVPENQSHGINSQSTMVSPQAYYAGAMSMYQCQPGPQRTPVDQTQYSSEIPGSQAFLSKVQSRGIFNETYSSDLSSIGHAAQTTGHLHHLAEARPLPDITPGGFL
Description: cell-based.

The target of the next data set is T5, estrogen receptor (ER) (Homo sapiens, UniProt P03372).
T5 construct: endogenous in cells; host or cells: BG1Luc4E2 (human ovarian cell line per title of Rogers and Denison 2000)
Description: ER CALUX luciferase reporter bioassay (BG1Luc4E2/ER-α-positive cells). The class given is cell-based. The following applies: for EC50: agonist, ER CALUX luciferase induction. A general note: In a reporter assay the amount or activity of a reporter protein is the signal.

The target of data set [6] is T6, human soluble epoxide hydrolase (sEH) (Homo sapiens, UniProt P34913).
T6 construct: made in house; host or cells: baculovirus expression system
T6 sequence (P34913 1-555): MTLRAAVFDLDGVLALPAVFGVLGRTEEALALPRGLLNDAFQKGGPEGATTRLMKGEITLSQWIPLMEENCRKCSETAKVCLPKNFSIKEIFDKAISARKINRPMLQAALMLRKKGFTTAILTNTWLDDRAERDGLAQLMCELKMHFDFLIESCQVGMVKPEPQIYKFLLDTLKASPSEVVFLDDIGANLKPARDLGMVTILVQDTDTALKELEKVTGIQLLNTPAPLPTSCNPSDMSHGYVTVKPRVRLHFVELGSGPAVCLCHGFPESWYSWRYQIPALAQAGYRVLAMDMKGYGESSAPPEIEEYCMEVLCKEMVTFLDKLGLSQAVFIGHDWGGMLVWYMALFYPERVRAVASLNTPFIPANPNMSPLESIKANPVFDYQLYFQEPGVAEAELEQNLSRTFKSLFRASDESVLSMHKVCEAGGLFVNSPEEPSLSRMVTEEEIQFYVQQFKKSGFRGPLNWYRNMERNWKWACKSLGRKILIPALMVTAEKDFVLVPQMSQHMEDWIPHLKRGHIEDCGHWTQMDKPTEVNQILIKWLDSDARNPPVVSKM
The experiment in a line: human sEH enzyme inhibition assay (CMNPC substrate, fluorescence kinetic). The settings on record: recombinant purified enzyme, CMNPC 5 μM, counterscreen; mean ± SD. The class given is biochemical.
From the text: as §1, §2, §3
A general note: Counterscreens check selectivity or assay interference.

Where two headings read alike, the source gives them in different places.

T3 sequence (P11712 whole entry): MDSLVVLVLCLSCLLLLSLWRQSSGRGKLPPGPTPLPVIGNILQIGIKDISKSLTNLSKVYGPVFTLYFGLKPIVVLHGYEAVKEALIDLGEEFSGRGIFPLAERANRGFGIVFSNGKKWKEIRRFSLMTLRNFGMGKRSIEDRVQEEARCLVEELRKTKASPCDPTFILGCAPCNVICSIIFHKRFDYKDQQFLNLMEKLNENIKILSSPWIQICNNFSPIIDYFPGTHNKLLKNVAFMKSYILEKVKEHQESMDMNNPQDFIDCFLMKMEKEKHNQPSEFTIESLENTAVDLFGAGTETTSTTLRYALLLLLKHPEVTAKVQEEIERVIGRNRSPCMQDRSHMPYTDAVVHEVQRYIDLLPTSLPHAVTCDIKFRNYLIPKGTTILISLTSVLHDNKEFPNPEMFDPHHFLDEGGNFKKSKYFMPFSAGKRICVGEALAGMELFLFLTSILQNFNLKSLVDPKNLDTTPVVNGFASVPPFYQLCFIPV
T5 sequence (P03372 whole entry): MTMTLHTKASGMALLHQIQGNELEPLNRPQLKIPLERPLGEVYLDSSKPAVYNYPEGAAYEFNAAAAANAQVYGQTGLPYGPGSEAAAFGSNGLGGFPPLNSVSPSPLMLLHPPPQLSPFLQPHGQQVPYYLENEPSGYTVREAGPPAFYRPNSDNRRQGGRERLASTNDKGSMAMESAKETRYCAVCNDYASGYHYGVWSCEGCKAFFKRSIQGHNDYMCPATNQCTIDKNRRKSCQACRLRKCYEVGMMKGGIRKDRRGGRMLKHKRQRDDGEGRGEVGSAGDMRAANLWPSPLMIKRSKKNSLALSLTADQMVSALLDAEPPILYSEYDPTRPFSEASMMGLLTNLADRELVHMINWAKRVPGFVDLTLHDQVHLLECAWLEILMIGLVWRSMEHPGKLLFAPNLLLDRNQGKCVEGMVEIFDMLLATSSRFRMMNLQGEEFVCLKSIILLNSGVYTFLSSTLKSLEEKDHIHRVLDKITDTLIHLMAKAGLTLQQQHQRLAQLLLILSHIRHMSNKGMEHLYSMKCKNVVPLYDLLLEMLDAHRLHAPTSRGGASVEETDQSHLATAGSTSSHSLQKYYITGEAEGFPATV

Turning to `CCOP(=S)(OCC)SCSc1ccc(Cl)cc1` [Carbophenothion, carbophenothion], the IC50 in data set [1] turned out to be 110 ± 15 nM.

In data set [2], `O=P(Oc1ccccc1)(Oc1ccccc1)Oc1ccccc1` [TPP, triphenyl phosphate] yielded a half-maximal inhibitory concentration (IC50) of 43 ± 3 nM.

`CCOP(=S)(OCC)Oc1nc(Cl)c(Cl)cc1Cl` [Chlorpyrifos, chlorpyrifos] returned an IC50 on CYP450 2C9 [3] of 3200 nM.

Regarding `CCOP(=S)(OCC)Oc1ccc([N+](=O)[O-])cc1` [Parathion, parathion], the IC50 in data set [1] worked out at 4.9 ± 0.4 nM.

In turn, Pyrethrum came in with a concentration for half-maximal inhibition (IC50) against CYP450 2C9 [4] of 2300 nM.

As for `Clc1ccc(-c2nc3ccccc3s2)cc1` [CPB, 2-(4-chlorophenyl)-benzothiazole], a half-maximal effect in data set [5] (EC50) was put at 11400 nM.

Consider `C/C=C/C(=O)Oc1c(C(C)CCCCCC)cc([N+](=O)[O-])cc1[N+](=O)[O-]` (stereo not drawn) [2-Methylheptyl-4,6-dinitrophenyl crotonate], for which half-maximal inhibition at CYP450 2C9 [4] (IC50) required 120 ± 1 nM.

Molecule `O=C1C(Cl)=C(Cl)C(=O)c2ccccc21` [Dichlone, dichlone] had an EC50 in data set [5] above 10000 nM.

As for `Oc1cc(Cl)ccc1Oc1ccc(Cl)cc1Cl` [Triclosan, triclosan], in data set [2], the IC50 was found to be 210 ± 20 nM and the affinity corresponds to a Ki of 105 ± 5 nM.

Consider `ClC1=C(Cl)C2(Cl)C3C4CC(C5OC45)C3C1(Cl)C2(Cl)Cl` (stereo not drawn) [Endrin], for which the midpoint of the response on estrogen receptor (ER), the EC50, lay at 13000 nM.

Regarding `CC1CCCCC1NC(=O)Nc1ccccc1` (stereo not drawn) [Siduron, siduron], in data set [6], the IC50 was determined as 33 ± 3 nM.

As for `ClC(Cl)=C(c1ccc(Cl)cc1)c1ccccc1Cl` [o,p-DDE, dichlorodiphenyldichloroethylene], the EC50 on estrogen receptor (ER) came out at 1200 nM. The “EC50 for ER induction, fold less potent than E2” value on estrogen receptor (ER) (relative to E2) is recorded as “approximately 10^5 fold”.

With `O=C(Nc1ccc(Cl)cc1)Nc1ccc(Cl)c(Cl)c1` [TCC, trichlorocarbanilide], the IC50 in data set [6] turned out to be 13 ± 1 nM.

As a reminder, the IC50 is the midpoint of a concentration-inhibition curve. As usually defined, the EC50 is the concentration needed to bring the measured effect to its halfway point. Higher therefore signals weaker potency. What is called Ki is a dissociation constant, usually derived from enzyme kinetics or from competition with a known ligand. A low value points to tighter binding.

Source of the values: article PMC2799460 (Environmental Health Perspectives, 2009).
